# From patent US12569468B2, “Use of palovarotene in treatment against HBV virus” (YANG SHENG TANG COMPANY, LTD., priority 2020, dated 2026)
# Legend:
# HepaRG M14a = experiment: Safety assessment, CCK-8 cell activity, HepaRG M14a; assay type: cell-based; details: 1 μM, 5 μM and 25 μM, 6 days treatment
# Description: This experiment was carried out in a 96-well culture plate, with 8×10^4 corresponding cells plated in each well, and the corresponding medium volume was 100 μL, in which each drug to be tested in the HepG2-hNTCP 2B1, HepaRG M14A and primary hepatocyte experimental groups had three final concentrations of 1 μM, 5 μM and 25 μM, each drug to be tested in the HepAD38 cell experimental group had two final concentrations of 1 μM and 5 μM (the drug was diluted with the corresponding medium to the final concentrations, specifically please refer to Example 1, Example 2, Example 4 and Example 5), and to the blank group the same volume of culture medium without drug was added. After the cells had grown to a suitable density, drug was added to perform treatment for 6 days, during which, the medium was changed every two days with fresh drug-containing medium. After the drug treatment, 110 μL of medium containing Beyotime CCK-8 cell activity detection reagent (purchased from Beyotime, Art. No. C0038) (the volume ratio of medium to CCK-8 reagent was 100:10) was used for replacement, the cells were incubated at 37° C. for 30 min, and then all the supernatant was collected for detection of absorbance. The absorbance value was read on PHOMO microplate reader purchased from Zhengzhou Autobio.
# HBV [1] = experiment: Inhibitory effect on HBV infection in human primary hepatocytes (drug before infection); assay type: cell-based, hepatitis B virus; details: 1, 5, 25 μM, treatment before infection, to day 8, p<0.05
# From the text: Primary hepatocytes were isolated from humanized mice transplanted with primary human hepatocytes through perfusion technique (refer to: Foquet, Lander, et al. “Successful engraftment of human hepatocytes in uPA-SCID and FRG® KO mice.” Hepatocyte Transplantation. Humana Press, New York, NY, 2017. 117-130, Wan-Chun Li, et al. “Isolation and Culture of Adult Mouse Hepatocytes.” Mouse Cell Culture. Humana Press, 2010. 185-196.), directly cultured in 24-well plates (Collagen I pre-coated 24-well plates, purchased from Thermo Scientific) after counting (about 5×10^5 primary hepatocytes per well), and medium H was added to maintain hepatocyte morphology (refer to: Xiang, Chengang, et al. “Long-term functional maintenance of primary human hepatocytes in vitro.” Science 364.6438 (2019): 399-402.). After culturing for 24 hours, drug-containing medium H was used to replace the drug-free medium H to perform drug treatment for 24 hours, and then infection was carried out with HBV, and the amount of HBV for infection in each well was 2000 MOI. Before infection, HBV was first diluted in medium I to obtain HBV solution, and the infection volume was 250 μL/well. During infection, the cell supernatant was first removed by suction, the HBV solution was added to the cells, the cells were incubated for 24 hours, then the supernatant was collected as the sample of Day 0. Then the cells were washed 3 times with PBS that was warmed in bath at 37° C., and fresh drug-containing medium H (500 μL per well) was used for replacement, then the supernatant was collected every two days for detection, fresh drug-containing medium H was used for replacement, until the 8th day, all the supernatants and cells were collected for relevant detection. The detection items included HBsAg, HBeAg, HBV DNA, HBV cccDNA, and for the detection method, please refer to Example 1.
# HBV [2] = experiment: Inhibitory effect on HBV infection in infection model HepG2-hNTCP 2B1 (drug before infection); assay type: cell-based, hepatitis B virus; details: 1, 5, 25 μM, drug from 24 h before infection to day 8, compared with blank group
# From the text: The human sodium-taurocholate cotransporting polypeptide (hNTCP) gene and the red fluorescent protein (mCherry) gene were constructed in a bicistronic expression cassette regulated by tetracycline-inducible promoter, the expression cassette was stably integrated into HepG2-Tet On cells by using a lentiviral system, a stable cell line HepG2-hNTCP 2B1 with high expression of hNTCP was obtained by using flow cytometry sorting technology, and this cell model supported HBV infection and generated HBV-related indicators. (For the construction method of this cell model, please refer to: Ya-Li Zhang, Ying Gao, Jia-Li Cao, Jing-Hua Zhao, Tian-Ying Zhang, ChuanLai Yang, Hua-Long Xiong, Ying-Bin Wang, Shan-Hai Ou, Tong Cheng, Chang-Rong Chen, Quan Yuan & Ning-Shao Xia (2019), Robust in vitro assay for analyzing the neutralization activity of serum specimens against hepatitis B virus, Emerging Microbes & Infections, 8:1, 724-733, DOI: 10.1080/22221751.2019.1619485).
# This experiment was carried out in a 24-well culture plate.
# About 1.5×10^5 HepG2-hNTCP 2B1 cells were plated in each well, and 500 μL of medium B was added. After the cells adhered, medium A was used for replacement to perform the induction with Doxycycline during the whole experiment.
# After 72 hours of the induction with Doxycycline, 500 μL of drug-containing medium A was added to each well to perform drug treatment for 24 h, and then the cells were infected with HBV, the virus amount for infection per well was 100 MOI. Before infection, HBV solution was obtained by diluting HBV in medium C, and the infection volume was 250 μL per well. […]
# HBsAg (chemiluminescence enzyme immunoassay (CLEIA), product standard number: YZB/Guo 0346-2014) and HBeAg (enzyme-linked immunosorbent assay (ELISA), product standard number: YZB/Guo 0216-2013) were detected using the Beijing Wantai Company's detection kits, and the specifical detection operations were carried out according to the detection methods described in the instructions in the kits.
# After the collected cells were washed with PBS, automated extraction was performed on a nucleic acid extraction workstation (purchased from GenMagBio, model: DOF-9696) using a viral DNA & RNA extraction kit (Beijing GenMagBio) (for the extraction procedure, please refer to the instrument manual) to obtain HBV DNA. The HBV DNA was quantified by probe real-time fluorescent quantitative PCR, in which the reagent used was Premix Ex Taq™ (Takara), the instrument used was Roche's LightCycler® 96, the primer sequences used for fluorescence quantification were shown in Table 1, and the fluorescence quantitative reaction system was shown in Table 2. […]
# [3] = p<0.05, dose-dependent in some extent
structure (smiles),measurement,setting,value
CC1(C)CCC(C)(C)c2cc(Cn3cccn3)c(/C=C/c3ccc(C(=O)O)cc3)cc21 [Palovarotene],CCK-8 absorbance value (cell activity) vs blank group,HepaRG M14a,not significantly different
same,level of HBeAg in the cell supernatant,HBV [1],significantly inhibit
same,level of HBsAg in the cell supernatant,HBV [1],significantly inhibit
same,level of intracellular HBV DNA,HBV [1],significantly inhibit
same,level of intracellular cccDNA,HBV [1],significantly inhibit
same,level of HBV cccDNA,"HBV [2]; p<0.0001, dose-dependent in some extent",effectively inhibit
same,level of intracellular HBV DNA,"HBV [2]; p<0.001, dose-dependent in some extent",effectively inhibit
same,level of HBeAg in the cell supernatant,HBV [2]; [3],effectively inhibit
same,level of HBsAg in the cell supernatant,HBV [2]; [3],effectively inhibit
